pIC50: −log10 of the molar value.
Experiments:
H^+ --K^+ ATPase = molecular target: T1, H^+ --K^+ ATPase (Sus scrofa, UniProt P19156); assay: H+-K+ ATPase activity inhibition; type: biochemical; details: pig gastric fundus gland H+-K+ ATPase; pH 7.40, 37° C., 30 min incubation; compound dissolved in methanol; read-out: inhibitory effect on H+-K+ ATPase activity, IC50
T1 construct: prepared from a gland portion of the gastric fundus of the gastiric mucosa of a fresh pig; from tissue; host or cells: gland portion of the gastric fundus mucosa, fresh pig
T1 sequence (P19156 2-1034 limits assumed): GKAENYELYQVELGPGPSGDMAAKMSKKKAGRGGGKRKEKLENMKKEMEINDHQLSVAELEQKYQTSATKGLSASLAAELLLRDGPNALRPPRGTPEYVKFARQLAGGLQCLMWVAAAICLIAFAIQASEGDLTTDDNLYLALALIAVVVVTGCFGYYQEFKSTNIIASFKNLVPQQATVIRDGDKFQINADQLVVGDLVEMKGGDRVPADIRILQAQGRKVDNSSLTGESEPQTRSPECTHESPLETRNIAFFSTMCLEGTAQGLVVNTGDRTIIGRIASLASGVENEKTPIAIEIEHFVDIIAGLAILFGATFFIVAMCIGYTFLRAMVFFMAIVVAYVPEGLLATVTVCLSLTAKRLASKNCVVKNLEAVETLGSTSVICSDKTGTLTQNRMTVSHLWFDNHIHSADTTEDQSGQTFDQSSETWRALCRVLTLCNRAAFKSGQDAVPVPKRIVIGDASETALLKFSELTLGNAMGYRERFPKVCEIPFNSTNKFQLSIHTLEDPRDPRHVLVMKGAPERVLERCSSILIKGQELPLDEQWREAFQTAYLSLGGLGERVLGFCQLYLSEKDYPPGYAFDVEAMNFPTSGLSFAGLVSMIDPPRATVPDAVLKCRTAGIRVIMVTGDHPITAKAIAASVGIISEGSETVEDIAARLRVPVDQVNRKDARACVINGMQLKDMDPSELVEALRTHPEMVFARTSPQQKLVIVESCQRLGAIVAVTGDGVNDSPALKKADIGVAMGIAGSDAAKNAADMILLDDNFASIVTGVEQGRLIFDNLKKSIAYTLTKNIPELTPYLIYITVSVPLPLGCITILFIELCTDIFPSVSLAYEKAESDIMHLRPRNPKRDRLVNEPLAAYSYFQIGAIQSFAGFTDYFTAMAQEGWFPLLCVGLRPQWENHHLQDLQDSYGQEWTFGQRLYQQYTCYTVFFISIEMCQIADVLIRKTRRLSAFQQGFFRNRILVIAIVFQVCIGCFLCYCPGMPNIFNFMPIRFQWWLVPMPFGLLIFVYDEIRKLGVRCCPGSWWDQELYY
T1 sequence (P18434 whole entry partner): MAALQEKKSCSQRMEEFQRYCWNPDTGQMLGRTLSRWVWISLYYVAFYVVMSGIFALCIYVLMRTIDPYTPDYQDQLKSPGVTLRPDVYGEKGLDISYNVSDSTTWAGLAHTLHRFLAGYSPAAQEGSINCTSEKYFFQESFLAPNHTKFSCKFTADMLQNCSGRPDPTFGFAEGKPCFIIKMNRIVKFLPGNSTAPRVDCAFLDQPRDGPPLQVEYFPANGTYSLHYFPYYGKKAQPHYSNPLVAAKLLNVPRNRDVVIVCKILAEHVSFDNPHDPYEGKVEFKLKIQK
Description: H^+ --K^+ ATPase activity inhibition
(1) Preparation of H^+ --K^+ ATPase:
H^+ --K^+ ATPase was prepared from a gland portion of the gastric fundus of the gastiric mucosa of a fresh pig by the modification of a method of Saccomani et al., Biochem. and Biophys.
(2) Determination of H^+ --K^+ ATPase activity:
The compound of the present invention was incubated in various concentrations together with H^+ --K^+ ATPase and 10 μg/ml of protein in 40 mM of Tris-HCl having a pH value of 7.40 at 37° C. for 30 min. 15 mM of KCl was added thereto. 10 min after the addition, an ATPase reaction was initiated by addition of 3 mM of MgCl2 and ATP. 10 min after the initiation of the reaction, the amount of the released inorganic phosphoric acid was measured according to the method of Yoda and Hokin, Biochem. Biophys.
The test compound was dissolved in methanol prior to use.
The inhibitory effect was determined as follows. The measured value of the test compound was subtracted from the measured value of the control group to determine the difference in the measured values therebetween. The inhibitory effect was calculated as the percentage of the difference relative to the measured value of the control group. In the Table, the inhibitory effect was expressed in terms of IC50.

[1] = reported, prior art; cited from earlier work

| Compound | pIC50 (H^+ --K^+ ATPase) | side effects [1] |
| --- | --- | --- |
| CCCCOCCOc1ccnc(C[S+]([O-])c2nc3ccccc3[nH]2)c1C (centres unmarked) | 5.74 | – |
| CCCCOCCOc1ccnc(C[S+]([O-])c2nc3cc(Cl)ccc3[nH]2)c1C (centres unmarked) [No. 2] | 5.74 | – |
| CCCCOCCOc1ccnc(C[S+]([O-])c2nc3cc(C(F)(F)F)ccc3[nH]2)c1C (centres unmarked) [No. 3] | 5.96 | – |
| CCCCOCCOc1ccnc(C[S+]([O-])c2nc3cc(C)c(C)cc3[nH]2)c1C (centres unmarked) [No. 4] | 5.66 | – |
| CCCCOCCOc1ccnc(C[S+]([O-])c2nc3cc(OC)ccc3[nH]2)c1C (centres unmarked) [No. 5] | 5.52 | – |
| CCOCCOc1ccnc(C[S+]([O-])c2nc3ccccc3[nH]2)c1C (centres unmarked) [No. 6] | 5.55 | – |
| CCOCCOc1ccnc(C[S+]([O-])c2nc3cc(OC)ccc3[nH]2)c1C (centres unmarked) [No. 9] | 5.47 | – |
| COCCOc1ccnc(C[S+]([O-])c2nc3ccccc3[nH]2)c1C (centres unmarked) [No. 10] | 5.48 | – |
| COCCOc1ccnc(C[S+]([O-])c2nc3cc(C(F)(F)F)ccc3[nH]2)c1C (centres unmarked) [No. 11] | 5.77 | – |
| COCCOc1ccnc(C[S+]([O-])c2nc3cc(OC)ccc3[nH]2)c1C (centres unmarked) [No. 12] | 5.25 | – |
| CN/C(=N/CCSCc1nc[nH]c1C)NC#N [cimetidine] | – | antiandrogenic action or a metabolic enzymatic activity inhibitory action upon liver |
